Laboratory results published in US20220175889A1, “NEW DOSAGE REGIMEN FOR INHALED VASOACTIVE INTESTINAL POLYPEPTIDE” (priority 2020, published 2022).

Legend:
[1] = system: histamine-induced bronchoconstriction; conditions: single 375 μg inhaled; cited from earlier work
[2] = system: patients with COVID-19 pulmonary involvement
[3] = assay type: physicochemical; conditions: M-neb mobile mesh nebulizer MN-300/9

CC[C@H](C)[C@H](NC(=O)[C@H](CO)NC(=O)[C@H](CC(N)=O)NC(=O)[C@H](CC(C)C)NC(=O)[C@H](Cc1ccc(O)cc1)NC(=O)[C@H](CCCCN)NC(=O)[C@H](CCCCN)NC(=O)[C@@H](NC(=O)[C@H](C)NC(=O)[C@H](CCSC)NC(=O)[C@H](CCC(N)=O)NC(=O)[C@H](CCCCN)NC(=O)[C@H](CCCNC(=N)N)NC(=O)[C@H](CC(C)C)NC(=O)[C@H](CCCNC(=N)N)NC(=O)[C@@H](NC(=O)[C@H](Cc1ccc(O)cc1)NC(=O)[C@H](CC(N)=O)NC(=O)[C@H](CC(=O)O)NC(=O)[C@@H](NC(=O)[C@H](Cc1ccccc1)NC(=O)[C@@H](NC(=O)[C@H](C)NC(=O)[C@H](CC(=O)O)NC(=O)[C@H](CO)NC(=O)[C@@H](N)Cc1c[nH]cn1)C(C)C)[C@@H](C)O)[C@@H](C)O)C(C)C)C(=O)N[C@@H](CC(C)C)C(=O)N[C@@H](CC(N)=O)C(N)=O [Aviptadil]
Protection against histamine-induced bronchoconstriction [1]: the activity could not be shown | Side effects [1]: no side effects were reported | Tolerability ([2]; human, in vivo): well tolerated | Distribution of AEs (%) ([2]; share of the 47 adverse events observed in Treatment Group, 16 patients treatment, 13 placebo): 40.43% | Entering Intensive Care (%) ([2]; treatment group, Age >= 60): 25% | Mass Median Aerodynamic Diameter [3]: 4±0.16 μm
